This is an account of results in ChEMBL document CHEMBL3301555, “MMV Malaria Box screening in pLDH viability assay against Plasmodium falciparum gametocytes”.

The test relates to Plasmodium falciparum. Nature of the test: MMV: Measure of pLDH activity as indication of parasite viability. Gametocytogenesis of 3D7 Plasmodium falciparum strain was induced in vitro and asexual parasites were depleted with N-acetylglucosamine. Gametocytes were treated with dihydroartemisinin, epoxomicin, methylene blue, primaquine, puromycin or chloroquine in 96-well plates and the pLDH activity was evaluated using a modified Makler protocol. Mosquito infectivity was measured by the standard membrane feeding assay. The format is functional. Set-up: concentration or dose not given beside the values.
For the compound `CCOc1cc(CNC(C)C(O)c2ccccc2)cc(Cl)c1OCC` (centres undefined), the “Growth Inhibition” value stood at 17.857%. `OC(CNCC1CCCO1)Cn1c2ccc(Cl)cc2c2cc(Cl)ccc21` (centres undefined): the “Growth Inhibition” value is listed as 10.6906%. The figure for `CCn1nc(-c2ccc(C(=O)OC)cc2)nc2c(=O)n(C)c(=O)nc1-2` is 19.8788%.

With `Cc1cc(NC(=O)c2cccc(C(F)(F)F)c2)n(-c2nc(-c3ccc4c(c3)OCO4)cs2)n1`, the “Growth Inhibition” value came to 1.3202%. As to `COc1cccc(C2(C)Nc3ccccc3-c3nc4ccccc4n32)c1` (centres undefined), the “Growth Inhibition” value was determined as 2.1776%. `CC(C)CNC(=O)c1c(N)n(CCc2ccccc2F)c2nc3ccccc3nc12`: the “Growth Inhibition” value was -1.2922%.

In the case of `O=C(Nc1ccccc1O)c1ccc(Oc2cccc(C(=O)Nc3ccccc3O)c2)cc1`, the “Growth Inhibition” value is 23.386%. Consider `Oc1ccccc1CN1CCC2(CCCN(Cc3ccccc3F)C2)C1` (centres undefined), for which the “Growth Inhibition” value amounted to 46.3042%. For `COc1cccc(O)c1CN1CCC2(CCCN(Cc3ccc(F)cc3)C2)C1` (centres undefined) the value was 38.0312%; for `COc1cccc(Nc2nc(NCCO)c3ccccc3n2)c1.Cl`, 21.665%.

In the case of `Cc1ccc(-c2cc(C(=O)Nc3ccc(S(=O)(=O)N4CCCCC4)cc3)[nH]n2)c(O)c1`, the “Growth Inhibition” value worked out at 28.7504%. In the case of `O=C(NCc1ccco1)C1CCN(S(=O)(=O)c2ccc(Cl)cc2)CC1`, the “Growth Inhibition” value is on record as 3.8942%. On to `COc1ccc(C(=O)Nc2ccc3nc(N4CCCCC4)cc(C)c3c2)cc1OC`, for which the “Growth Inhibition” value is 11.0486%.

With `COCCNCC(O)Cn1c2ccc(Cl)cc2c2cc(Cl)ccc21` (centres undefined), the “Growth Inhibition” value is 45.598%. With `COc1ccc(N2CCN(C(CNC(=O)C3CCCCC3)c3ccc4c(c3)OCO4)CC2)cc1` (centres undefined), the “Growth Inhibition” value stood at 22.7332%.

Turning to `FC(F)(F)c1ccc(Nc2nnnc3ccccc23)cc1`, the “Growth Inhibition” value came to 21.2738%. On to `O=C(NC1CCN(Cc2ccccc2)CC1)c1cc(-c2ccncc2)nc2ccc(Cl)cc12`, for which the “Growth Inhibition” value was determined as 12.9682%. For the compound `c1ccc(-c2ccc(-c3nc4ccccc4[nH]3)cc2)cc1`, the “Growth Inhibition” value came to 7.2118%.

Regarding `COc1cc2cc(C(=O)Nc3ccccc3)c(N)nc2cc1OC`, the “Growth Inhibition” value is 2.432%. For `COc1cccc(NC(=O)Cn2c(C)c(C#N)c3ccccc32)c1` the value was 15.89%. For `Cn1c(=O)c2cc(C(=O)NCCCN3CCCCCC3)sc2c2ccccc21` the value was 15.852%; for `Cc1[nH]c(-c2ccc(F)cc2)cc1C(=O)NC1CCN(Cc2ccccc2)CC1`, 9.4322%; for `COc1ccc(CCN2CCC(CN(C)Cc3cnn(-c4ccccc4)c3)CC2)cc1`, 34.868%. On to `O=C(O)C(=O)O.Oc1ccccc1CN1CCN(C(c2ccccc2)c2ccccc2)CC1`, for which the “Growth Inhibition” value amounted to 27.3522%.

For the compound `O=C(NC1CCCC1)c1ccc(N2CCC(NCc3cccc(C(F)(F)F)c3)CC2)cc1`, the “Growth Inhibition” value is 6.6358%. Turning to `CCOc1cc(Br)c(C(C)NC(=O)c2cccc(OC)c2)cc1OCC` (centres undefined), the “Growth Inhibition” value worked out at 15.2596%. Take `CC(C)=CCN1CCC(C(=O)Nc2ccc(-c3nc4ccccc4[nH]3)cc2)CC1`: the “Growth Inhibition” value amounted to 16.6684%. As to `CCOc1cc(Cl)c(C(C)NC(=O)c2cccc(OC)c2)cc1OCC` (centres undefined), the “Growth Inhibition” value stood at 18.9364%.

With `O=C(CCc1ccco1)NC1CCN(CC2(c3ccc(Cl)cc3)CCC2)CC1`, the “Growth Inhibition” value was determined as 18.8072%.

As to `FC(F)(F)c1cccc(Nc2nc(-c3ccccc3)nc3ncccc23)c1`, the “Growth Inhibition” value is recorded as 9.5538%. Take `CCN1CCN(c2cc(C)c3cc(NC(=O)c4ccc(OC)c(OC)c4)ccc3n2)CC1`: the “Growth Inhibition” value came to 12.8102%. Regarding `CC(=O)Nc1nnc(SCc2c(C)cc(C(C)(C)C)cc2C)s1`, the “Growth Inhibition” value is reported as -6.288%.

As for `Cc1ccc(Cl)cc1N1CCN(CCCNC(=O)C2CCN(c3nc4ccccc4[nH]3)CC2)CC1`, the “Growth Inhibition” value worked out at 21.502%. For `COc1ccc(CNC2CCN(c3ccc(NC(=O)c4cccc(Cl)c4)cc3)CC2)cc1OC`, the “Growth Inhibition” value is reported as 12.3618%. `Cc1ccc(CSCc2ccc(C(=O)NC3CC3)o2)cc1`: the “Growth Inhibition” value worked out at 9.7118%. The figure for `CC(NCc1ccccc1)c1cc(Cl)ccc1O` (centres undefined) is 40.6308%. As to `CN1CCN(c2c3c(c(C#N)c4nc5ccccc5n24)CCC3)CC1`, the “Growth Inhibition” value stood at 7.7684%. As to `CCOc1ccc(C2N(C)c3ccccc3N2C)cc1`, the “Growth Inhibition” value was found to be 9.8332%. Take `O=C(c1ccccc1F)N(Cc1ccc(Cl)cc1)c1ccccn1`: the “Growth Inhibition” value turned out to be 9.2554%. The figure for `COc1ccc(C(=O)Nc2ccc(Cl)cc2C(=O)Nc2ccncc2)cc1` is 8.2224%; for `O=C(Nc1ccc(CN2CCOCC2)cc1)c1ccc(-c2ccc(Br)cc2)o1` it is 17.4274%; for `CCN(Cc1ccccc1)C1CCN(Cc2cc(Br)ccc2O)CC1.O=C(O)C(=O)O` it is 47.2545%. For the compound `CC(=O)NCCc1nc2ccccc2n1Cc1ccc(C(C)C)cc1`, the “Growth Inhibition” value was found to be 10.8344%.

For the compound `COc1nc(Nc2ccc(C(C)C)cc2)nc(OC)n1`, the “Growth Inhibition” value stood at 1.041%. The figure for `CCN(CC)CCNc1ncnc2c1[nH]c1ccc(Br)cc12` is 8.817%; for `CCOc1cccc(C(=O)Nc2ccc(-c3nc4ccccc4[nH]3)cc2)c1` it is 7.5178%. With `CN(C)c1ccc(-c2nc3cc(N)ccc3[nH]2)cc1`, the “Growth Inhibition” value is recorded as 18.3914%.

On to `O=C(CSc1ccc2nnc(-c3cccc(F)c3)n2n1)Nc1ccc2c(c1)OCO2`, for which the “Growth Inhibition” value turned out to be 8.1908%. As for `Cc1c(C)n(Cc2ccc(F)cc2)c2ccc(C(=O)NCc3ccco3)cc12`, the “Growth Inhibition” value stood at 19.2814%. Take `CCN(CC)c1ccc(NC(=O)c2cccs2)cc1`: the “Growth Inhibition” value amounted to 3.9542%. As for `CCCCNCC(O)(c1ccc(Cl)cc1)c1ccc(Cl)cc1`, the “Growth Inhibition” value amounted to 33.502%. On to `CCCC(c1nnnn1C1CCCCC1)N1CCN(C(=O)c2ccco2)CC1.Cl` (centres undefined), for which the “Growth Inhibition” value turned out to be 10.3688%.

Turning to `CC(C)(C)C(=O)Nc1ccc(C(=O)Nc2cccc(-c3nc4ccccc4[nH]3)c2)cc1`, the “Growth Inhibition” value was 13.3516%. `COc1ccc(-c2nonc2NC(=O)c2cccc(C)c2)cc1OC`: the “Growth Inhibition” value came out at 3.7758%.

As to `COc1cccc(-c2nn(C)c3sc(C(=O)NCCN4CCN(c5ccccc5F)CC4)cc23)c1`, the “Growth Inhibition” value turned out to be 20.4084%. On to `O=C(Nc1ccc(N2CCN(Cc3ccccc3)CC2)cc1)c1cccs1.O=C(O)C(F)(F)F`, for which the “Growth Inhibition” value is reported as -8.6144%. Consider `Cc1ccc(CN2CCC(C(=O)Nc3ccc(-c4cc5ccccc5[nH]4)cc3)CC2)o1`, for which the “Growth Inhibition” value was found to be 25.7326%.

For `O=C(Nc1ccc(N2CCCCC2)c(Cl)c1)c1ccc(Br)o1`, the “Growth Inhibition” value is given as -4.8588%. The figure for `O=C(Nc1ccsc1C(=O)NC1CCCCC1)c1ccc(F)cc1` is 7.047%.

For `O=C(Nc1cccc(C(F)(F)F)c1)c1cc(Cl)ccc1O`, the “Growth Inhibition” value is 14.365%. In the case of `CC(C)(C)c1ccc(C(=O)Nc2nc3ccccc3s2)cc1`, the “Growth Inhibition” value is listed as 9.3876%. For `CCOc1cccc2sc(N(Cc3cccnc3)C(=O)C3CCCCC3)nc12`, the “Growth Inhibition” value came to 1.8442%. On to `CC1CC(C)CN(C(=O)c2ccc(Cl)cc2Cl)C1` (centres undefined), for which the “Growth Inhibition” value was -2.8594%. As to `COc1ccccc1CNC(=O)C1c2ccccc2C(=O)N(CC(C)C)C1c1cccs1` (centres undefined), the “Growth Inhibition” value amounted to 12.474%. Regarding `OC(CNC1CCCC1)Cn1c2ccccc2c2ccccc21` (centres undefined), the “Growth Inhibition” value is 39.5038%. On to `COc1ccc(C2N(C)c3ccccc3N2C)cc1`, for which the “Growth Inhibition” value is given as 3.9982%. Take `CCN(CC)c1cc(C)c2cc(NC(=O)c3cccc(OC)c3)ccc2n1`: the “Growth Inhibition” value was 11.335%. The figure for `CCOc1ccc(/C=C/c2nc(=O)c3ccccc3o2)cc1` is 7.7706%; for `O=C(Nc1ccccc1O)c1ccc(-c2ccc(Cl)cc2Cl)o1` it is 15.81%. In the case of `O=C(Nc1nc(-c2ccccn2)cs1)c1ccccc1Br`, the “Growth Inhibition” value is recorded as 29.0858%. Take `O=C(Nc1ccc(F)c(Cl)c1)Nc1ccc(Cl)c(Cl)c1`: the “Growth Inhibition” value is 4.6714%. The figure for `CC(O)(c1ccc(Cl)cc1)C(CN1CCCCC1)c1ccccc1.Cl` (centres undefined) is 18.9754%; for `CCOc1ccc(-c2nc(NC(=O)c3cccc(S(C)(=O)=O)c3)sc2C)cc1` it is 10.5858%; for `CCOc1ccccc1CNC(=O)C1c2ccccc2C(=O)N(CC(C)C)C1c1cccs1` (centres undefined) it is 7.24%. In the case of `Clc1ccc2[nH]c3c(NCCCN4CCOCC4)ncnc3c2c1`, the “Growth Inhibition” value was 9.617%. Take `COc1ccccc1N1CCN(C(CNS(=O)(=O)c2ccc(Cl)cc2)c2cccnc2)CC1` (centres undefined): the “Growth Inhibition” value came out at 14.3398%. In the case of `Oc1c2c(nc3cc(-c4ccccc4)nn13)CCCC2`, the “Growth Inhibition” value amounted to 5.0802%.

For the compound `CCCc1c(C)nc2ccccc2c1O`, the “Growth Inhibition” value stood at 34.5652%. The figure for `CCOc1c(Cl)cc(CNC(C)C(O)c2ccccc2)cc1OC` (centres undefined) is 22.4902%.

Regarding `CCCN(CCC)CCCNC(=O)c1cc2c(-c3ccc(OC)c(OC)c3)nn(C)c2s1`, the “Growth Inhibition” value came to 9.751%. As for `Cc1cc(N2CCN(C3CCCC3)CC2)n2c(nc3ccccc32)c1C#N`, the “Growth Inhibition” value turned out to be 0.943%. For the compound `CCN(CC)CCCNc1nc(-c2ccc(Cl)cc2)nc2ccccc12`, the “Growth Inhibition” value was 7.9964%.

As for `CN1c2ccccc2N(C)C1c1ccc2c(c1)OCO2`, the “Growth Inhibition” value turned out to be 17.3464%. For `CCCCOc1ccc(C(=O)Nc2cc(C)on2)cc1` the value was -2.1422%. The figure for `O=C(NCC1Cc2cccc(-c3ccncc3)c2O1)c1csc2c1CCCC2` (centres undefined) is 15.175%; for `CCc1ccc(Nc2cc(C)nc3nc(C)nn23)cc1` it is -2.3802%. As for `Br.CCN(CC)S(=O)(=O)c1ccc(-c2csc(Nc3ccc(C)c(C)c3)n2)cc1`, the “Growth Inhibition” value was determined as 9.3564%.

For `C=C(C)CCC(C)N1CCC(N2CCC(C(=O)NCCc3ccccc3)CC2)CC1` (centres undefined), the “Growth Inhibition” value turned out to be 9.4772%. With `C=CCc1c(C)nc2ccccc2c1O`, the “Growth Inhibition” value worked out at 8.3394%.
